Test results from US8772302B2, “GPR 119 agonists” (Cadila Healthcare Limited, priority 2009, dated 2014).
Where two headings read alike, the source gives them in different places.

Experiments:
Sprague Dawley rats = experiment: Feed intake in Sprague Dawley rats; assay type: in vivo, rat; conditions: cumulative feed intake vs vehicle; for inhibition in vivo at 25 mg/kg: Rattus norvegicus, ip
From the text: In Vivo Efficacy Studies: Feed Intake in Sprague Dawley Rats:
Sprague Dawley rats of 6-8 week age are used for this experiment they are kept for acclimatization in reversed light/dark cycle for 15 days. Animals will have free access to a standard chow diet and water during acclimatization period. After 15 days reversed light/dark cycle acclimatization animals are trained for fasting induced feed intake for 5 days till they show consistent feed intake. Grouping was done based on the monitored feed intake during the training days. On treatment day each group of animals are dosed with test compound or vehicle by appropriate routes of administration (orally or intraperitoneally). Exactly 30 min. after treatment, measured amount of standard chow diet is provided and recorded as O-min feed offered. Then subsequently 2, 4, 6 and 24 hour after O-min, feed intake is measured and the cumulative feed intakes are calculated. The change in cumulative feed intake as compared to vehicle treated control at each time point is calculated for test compound.

C57/BL6 mice = experiment: Oral glucose tolerance test (OGTT) in C57/BL6 mice; assay type: in vivo, mouse; conditions: serum glucose AUC, single oral dose, glucose load 3 gm/kg
Method: Oral Glucose Tolerance Tests (OGTT) in C57/BL6 Mice:
C57/BL6 mice of 6-8 week age are used for this experiment. Animals are grouped based on non-fasting serum glucose levels and kept on fasting for overnight (day before OGTT). On the experiment day, […], 30 min post dosing animals are bled for basal glucose level estimation and at the same time glucose load (3 gm/kg) will be administered per orally. Blood is collected at time points corresponding to 20, 40, 60 and 120 min after glucose load administration. Serum is separated for determination of glucose levels and change in area under curve for glucose is calculated and provided in table 4 as % reduction in AUC.

[1] = biological target: T1, recombinant human GPR 119 receptor (Homo sapiens, UniProt Q8TDV5); experiment: cAMP assay in stable cell line expressing recombinant human GPR 119 receptor; assay type: cell-based; conditions: intracellular cAMP
T1 construct: expressed in transfected cells
T1 sequence (Q8TDV5 1-335): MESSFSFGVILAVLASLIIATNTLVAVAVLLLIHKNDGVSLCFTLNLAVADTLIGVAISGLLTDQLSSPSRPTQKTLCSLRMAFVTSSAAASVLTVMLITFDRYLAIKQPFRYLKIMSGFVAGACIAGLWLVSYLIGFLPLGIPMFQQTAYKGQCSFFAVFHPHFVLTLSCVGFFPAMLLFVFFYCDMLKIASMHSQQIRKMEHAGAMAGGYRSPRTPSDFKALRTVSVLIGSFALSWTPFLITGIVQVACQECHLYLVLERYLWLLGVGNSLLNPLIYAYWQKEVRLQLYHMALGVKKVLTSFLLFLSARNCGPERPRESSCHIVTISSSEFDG
From the text: cAMP assay: A stable cell line expressing recombinant human GPR 119 receptor was established and used to investigate the efficacy of the compounds of the invention based on the intracellular levels of cyclic AMP (cAMP) using commercially available cAMP kits. Compounds of the invention produced a concentration dependent increase in cAMP level and EC50 values of representative compounds were provided in table 1.

[2] = intraperitoneal, 25 mg/kg, 2 hour
[3] = intraperitoneal, 25 mg/kg, 4 hour
[4] = intraperitoneal, 25 mg/kg, 6 hour
[5] = intraperitoneal, 25 mg/kg, 24 hour

SMILES | % reduction in food in take, 2 hour (Sprague Dawley rats; oral, 50 mg/kg, 2 hour) | % reduction in food in take, 4 hour (Sprague Dawley rats; oral, 50 mg/kg, 4 hour) | % reduction in food in take, 6 hour (Sprague Dawley rats; oral, 50 mg/kg, 6 hour) | % reduction in food in take, 24 hour (Sprague Dawley rats; oral, 50 mg/kg, 24 hour) | % reduction in food in take, 2 hour (Sprague Dawley rats; [2]) | % reduction in food in take, 4 hour (Sprague Dawley rats; [3]) | % reduction in food in take, 6 hour (Sprague Dawley rats; [4]) | % reduction in food in take, 24 hour (Sprague Dawley rats; [5]) | further results
Cc1c(Oc2ccc([C@H]3CO[S@@](=O)OC3)cc2)ncnc1OC1CCN(C(=O)OC(C)C)CC1 [Example 47, cis-isopropyl 4-((5-methyl-6-(4-(2-oxido-1,3,2-dioxathian-5-yl)phenoxy)pyrimidin-4-yl)oxy)piperidine-1-carboxylate] | 23% | 16% | 3% | 3% |  |  |  |  | 
CC(C)(C)OC(=O)N1CCC(c2nc(COc3ccc(C4COS(=O)OC4)cc3)cs2)CC1 (stereo not drawn) [Example 18, trans-tert-butyl 4-(4-((4-(2-oxido-1,3,2-dioxathian-5-yl)phenoxy)methyl)thiazol-2-yl)piperidine-1-carboxylate] |  |  |  |  |  |  |  |  | % reduction in AUC at 50 mg/kg (C57/BL6 mice): 11%
Cc1c(Oc2ccc(C[C@H]3CO[S@](=O)OC3)cc2)ncnc1OC1CCN(c2nc(C(C)C)no2)CC1 [Example 30, trans-5-(4-((6-((1-(3-isopropyl-1,2,4-oxadiazol-5-yl)piperidin-4-yl)oxy)-5-methylpyrimidin-4-yl)oxy)benzyl)-1,3,2-dioxathiane 2-oxide] |  |  |  |  | 39% | 31% | 5% | 9% | 
Cc1c(Oc2ccc([C@H]3CO[S@@](=O)OC3)cc2)ncnc1OC1CCN(C(=O)Nc2ccc(Cl)cc2Cl)CC1 [Example 45, cis-N-(2,4-dichlorophenyl)-4-((5-methyl-6-(4-(2-oxido-1,3,2-dioxathian-5-yl)phenoxy)pyrimidin-4-yl)oxy)piperidine-1-carboxamide] | 28% | 28% | 16% | 7% |  |  |  |  | 
CCc1cnc(N2CCC(Oc3ccc(C[C@H]4CO[S@](=O)OC4)cc3)CC2)nc1 [Example 60, trans-5-(4-((1-(5-ethylpyrimidin-2-yl)piperidin-4-yl)oxy)benzyl)-1,3,2-dioxathiane 2-oxide] | 39% | 31% | 24% | 5.3% |  |  |  |  | 
Cc1c(Oc2ccc(C3COS(=O)OC3)cc2)ncnc1OC1CCN(C(=O)OC(C)C)CC1 (stereo not drawn) [Example 48, trans-isopropyl 4-((5-methyl-6-(4-(2-oxido-1,3,2-dioxathian-5-yl)phenoxy)pyrimidin-4-yl)oxy)piperidine-1-carboxylate] | 32% | 17% | 17% | 10% |  |  |  |  | 
Cc1c(OCCCC2CCN(C(=O)OC(C)(C)C)CC2)ncnc1Oc1ccc(C2COS(=O)OC2)cc1 (stereo not drawn) [Example 20, cis-tert-butyl 4-(3-((5-methyl-6-(4-(2-oxido-1,3,2-dioxathian-5-yl)phenoxy)pyrimidin-4-yl)oxy)propyl)piperidine-1-carboxylate] |  |  |  |  |  |  |  |  | % reduction in AUC at 50 mg/kg (C57/BL6 mice): 25%
Cc1c(Oc2ccc(C[C@H]3CO[S@@](=O)OC3)cc2)ncnc1OC1CCN(c2nc(C(C)C)no2)CC1 [Example 29, cis-5-(4-((6-((1-(3-isopropyl-1,2,4-oxadiazol-5-yl)piperidin-4-yl)oxy)-5-methylpyrimidin-4-yl)oxy)benzyl)-1,3,2-dioxathiane 2-oxide] |  |  |  |  | 50% | 24% | 5% | 4% | 
Cc1c(Oc2ccc([C@H]3CO[S@@](=O)OC3)cc2)ncnc1OC1CCN(C(=O)OC(C)(C)C)CC1 [Example 15, cis-tert-butyl 4-((5-methyl-6-(4-(2-oxido-1,3,2-dioxathian-5-yl)phenoxy)pyrimidin-4-yl)oxy)piperidine-1-carboxylate] |  |  |  |  |  |  |  |  | EC50 [1]: 4.2 nM; inhibition in vivo at 25 mg/kg (Sprague Dawley rats; intraperitoneal, 25 mg/kg, 2 hour, read-out: % reduction in food in take, 2 hour): 47%; inhibition in vivo at 25 mg/kg (Sprague Dawley rats; intraperitoneal, 25 mg/kg, 4 hour, read-out: % reduction in food in take, 4 hour): 31%; inhibition in vivo at 25 mg/kg (Sprague Dawley rats; intraperitoneal, 25 mg/kg, 6 hour, read-out: % reduction in food in take, 6 hour): 28%; inhibition in vivo at 25 mg/kg (Sprague Dawley rats; intraperitoneal, 25 mg/kg, 24 hour, read-out: % reduction in food in take, 24 hour): 19%
CCc1cnc(N2CCC(Oc3ncnc(Oc4ccc(C[C@H]5CO[S@@](=O)OC5)cc4)c3C)CC2)nc1 [Example 31, cis-5-(4-((6-((1-(5-ethylpyrimidin-2-yl)piperidin-4-yl)oxy)-5-methylpyrimidin-4-yl)oxy)benzyl)-1,3,2-dioxathiane 2-oxide] |  |  |  |  | 28% | 34% | 28% | 9% | 
Cc1c(Oc2ccc([C@H]3CO[S@@](=O)OC3)cc2)ncnc1OC1CCN(c2ncccn2)CC1 [Example 5, cis-5-(4-((5-methyl-6-((1-(pyrimidin-2-yl)piperidin-4-yl)oxy)pyrimidin-4-yl)oxy)phenyl)-1,3,2-dioxathiane 2-oxide] |  |  |  |  | 35% | 17% | 21% | 8% | 
CC(C)(C)OC(=O)N1CCC(c2nc(COc3ccc([C@H]4CO[S@@](=O)OC4)cc3)cs2)CC1 [Example 17, cis-tert-butyl 4-(4-((4-(2-oxido-1,3,2-dioxathian-5-yl)phenoxy)methyl)thiazol-2-yl)piperidine-1-carboxylate] |  |  |  |  | 34% | 34% | 24% | 13% | % reduction in AUC at 50 mg/kg (C57/BL6 mice): 34%
CCOC(=O)N1CCC(Oc2ncnc(Oc3ccc(C[C@H]4CO[S@@](=O)OC4)cc3)c2C)CC1 [Example 39, cis-ethyl 4-((5-methyl-6-(4-((2-oxido-1,3,2-dioxathian-5-yl)methyl)phenoxy)pyrimidin-4-yl)oxy)piperidine-1-carboxylate] |  |  |  |  |  |  |  |  | EC50 [1]: 94 nM
Cc1c(Oc2ccc(C[C@H]3CO[S@@](=O)OC3)cc2Cl)ncnc1OC1CCN(C(=O)OC(C)(C)C)CC1 [Example 63, cis-tert-butyl 4-((6-(2-chloro-4-((2-oxido-1,3,2-dioxathian-5-yl)methyl)phenoxy)-5-methylpyrimidin-4-yl)oxy)piperidine-1-carboxylate] | 44% | 41% | 25% | 15% |  |  |  |  | % reduction in AUC at 50 mg/kg (C57/BL6 mice): 31%
CCc1cnc(N2CCC(Oc3ccc(C[C@H]4CO[S@@](=O)OC4)cc3)CC2)nc1 [Example 59, cis-5-(4-((1-(5-ethylpyrimidin-2-yl)piperidin-4-yl)oxy)benzyl)-1,3,2-dioxathiane 2-oxide] | 23% | 21% | 15% | 11% |  |  |  |  | 
CC(C)(C)OC(=O)N1CCC(c2nc(COc3ccc(CC4COS(=O)OC4)cc3)cs2)CC1 (stereo not drawn) [Example 55, cis-tert-butyl 4-(4-((4-((2-oxido-1,3,2-dioxathian-5-yl)methyl)phenoxy)methyl)thiazol-2-yl)piperidine-1-carboxylate] | 33% | 5.3% |  |  |  |  |  |  | 
